Measured values reported in US8962558B2, “Methods for reducing GnRH-positive tumor cell proliferation using the GnRH antagonist IN3” (priority 1997, dated 2015).
Square brackets hold non-standard residues; d marks the D form. Peptide text beside a SMILES is read from it. * marks the point of attachment. dPhe(4-NHCONH2) = NC(=O)Nc1ccc(C[C@@H](N)C(=O)O)cc1; Dihydroorotyl(S) = O=C1C[C@@H](C(=O)*)NC(=O)N1; d(hArg(Et2)) = CCN=C(NCC)NCCCC[C@@H](N)C(=O)O; dPhe(4-NH2) = Nc1ccc(C[C@@H](N)C(=O)O)cc1; hArg(Et2) = CCN=C(NCC)NCCCC[C@H](N)C(=O)O; dPhe(4-Cl) = N[C@H](Cc1ccc(Cl)cc1)C(=O)O; Phe(4-NH2) = Nc1ccc(C[C@H](N)C(=O)O)cc1; d2Nal = N[C@H](Cc1ccc2ccccc2c1)C(=O)O; Lys(iPr) = CC(C)NCCCC[C@H](N)C(=O)O; NMeY = CN[C@@H](Cc1ccc(O)cc1)C(=O)O; d3Pal = N[C@H](Cc1cccnc1)C(=O)O

Experiments:
[1] = tested on: small cell lung carcinoma cell lines NCI-H1688, NCI-H1417, NCI-H1672, NCI-H1836, DMS-79, DM-553, DMS-114, SW-1271, NCI-H2227, NCI-HI1963, SHP-77 and H-69 AR; experiment: Proliferation assay on small cell lung carcinoma cell lines (Example 3); format: cell-based, human; conditions: small cell lung carcinoma cell lines treated with the substance
Procedure: In another embodiment, the small cell lung carcinoma cell lines NCI-H1688, NCI-H1417, NCI-H1672, NCI-H1836, DMS-79, DM-553, DMS-114, SW-1271, NCI-H2227, NCI-HI1963 and SHP-77 in addition to the multidrug-resistant small cell lung carcinoma cell line H-69 AR, are cultured as described above and then treated as described by Emons, G., et al., 1993, supra, and Irmer, G., 1995, supra, with various concentrations of the GnRH agonists (D-Lys6)-GnRH, Lutrelin, Histrelin, Nafarelin, Azagly-Nafarelin, Deslorelin, Cystorelin, Decapeptyl, Gonadorelin, GnRH, D-Lys(6)-GnRH II, Lamprey GnRH II, (D-Lys6)-Lamprey GnRH, (D-Lys6)-Lamprey GnRH II and Lamprey GnRH III.
In another embodiment, the small cell lung carcinoma cell lines NCI-H1688, NCI-H1417, NCI-H1672, NCI-H1836, DMS-79, DM-553, DMS-114, SW-1271, NCI-H2227, NCI-HI1963 and SHP-77 in addition to the multidrug-resistant small cell lung carcinoma cell line H-69 AR, are cultured as described above for the above-mentioned cell lines, and then treated as described by Emons, G., et al., 1993, supra, and Irmer, G., 1995, supra, with a concentration of the GnRH antagonist Cetrorelix (also known as Cetrotide®) or with a GnRH peptide antagonist Ac-D-Nal(2)-D-4-ClPhe-D-Pal-Ser-1-MePal-D-IsopropylLys-Leu-IsopropylLys-Pro-D-AlaNH2 wherein Mepal is 1-Methyl-3-[3′-pyridyl]-alanine or Ant 135-25 (also known as Ac-D-Nal(2)-D-4-Cl-Phe-D-Pal-Ser-1-MePal-D-IsopropylLys-Leu-IsopropylLys-Pro-D-AlaNH2), Teverelix (also known as Antarelix®), Cetrorelix (also known as Cetrotide®), Abarelix (also known as Plenaxis®), D-63153 (also known as Ozarelix®), acyline, azaline B, antide (also known as Iturelix®), Degarelix (FE200486), Ganirelix, Nal-Glu, Orntide (also known as Ornirelix®) or with antagonist peptidomimetic ((2S)-2-[5-[2-(2-azabicyclo[2,2,2]oct-2-yl)-1,1-dimethyl-2-oxoethyl]-2-(3,5-dimethylphenyl)-1H-indol-3-yl]-N-(2-pyridin-4-ylethyl-)propan-1-amine (also known as “IN3”).

[2] = tested on: human glioblastoma cell lines U-87MG or U-373MG, Kaposi sarcoma cell lines KSY-1 or KS-SLK, malignant melanoma cell line MV3 or BLM, medulloblastoma cell line …; experiment: Proliferation assay on cell cultures (Example 3); format: cell-based; conditions: for anti-proliferative effects in tumor cells: cell lines of Example 3 treated with the substance; for anti-proliferative effect compared with Cetrorelix only: given additionally as a second GnRH antagonist
Procedure: A human cell line, such as the well known human glioblastoma cell lines U-87MG or U-373MG (Pinski et al., supra), or a human cell line such as the well known Kaposi sarcoma cell lines KSY-1 or KS-SLK (Parkash et al., 1996, New England Journal of Medicine, 335, 17, 1261-1269), or a human cell line such as the well known human malignant melanoma cell line MV3 or BLM (Goldbrunner, R. H., et al., 1996, Anticancer Research 16 (6B), 3679-87), or a human medulloblastoma cell line such as the well known cell line Daoy or D283 MED (Stockhammer et al., 1995, J. Neurosurgery, 83, 672-681), or human meningeoma cell cultures (Boyle-Wash, E., et al., 1995, Journal of Endocrinology, 145, 155-161), are cultured as previously described for the above-mentioned cell lines and then treated with a concentration of the GnRH agonist Triptorelin®, GnRH antagonist SB-75 (Cetrorelix®) or GnRH antagonist Ramorelix®. […]
In another embodiment, the above-mentioned cell lines are treated as described by Emons, G., et al., 1993, supra, and Irmer, G., 1995, supra, with a concentration of the GnRH peptide antagonist Ac-D-Nal(2)-D-4-ClPhe-D-Pal-Ser-1-MePal-D-IsopropylLys-Leu-IsopropylLys-Pro-D-AlaNH2 (also known as Ant 135-25; the Mepal portion is known as 1-Methyl-3-[3′-pyridyl]-alanine), Teverelix (also known as Antarelix®), Cetrorelix (also known as Cetrotide®), Abarelix (also known as Plenaxis®), D-63153 (also known as Ozarelix®), acyline, azaline B, antide (also known as Iturelix®), Degarelix (FE200486), Ganirelix, Nal-Glu, Orntide (also known as Ornirelix®), Elagolix, or with antagonist peptidomimetic ((2S)-2-[5-[2-(2-azabicyclo[2,2,2]oct-2-yl)-1,1-dimethyl-2-oxoethyl]-2-(3,5-dimethylphenyl)-1H-indol-3-yl]-N-(2-pyridin-4-ylethyl-)propan-1-amine (also known as “IN3”).
In another embodiment, the cell lines used above were each additionally treated with a second GnRH antagonist, namely one of the GnRH antagonists Cetrorelix®, Ant 135-25, IN3, degarelix, Antarelix®, Antide®, and Ramorelix® or alternatively with one of the GnRH antagonists that have been disclosed in U.S. Pat. Nos. 6,939,88, 6,200,957, 5,296,468, 4,851,385, 7,361,633, 7,288,517, WO/2009/106597 or PCT/EP2009/052326, U.S. Pat. Nos. 5,480,969, 5,198,533, or UK Patent GB 2 246782 B, wherein these additional treatment procedures were carried out in a manner similar to those reported in Emons et al., supra, using SB 75 (Cetrorelix®). […]

SMILES | anti-proliferative effects in tumor cells [1] | anti-proliferative effects in tumor cells [2] | anti-proliferative effect compared with Cetrorelix only [2]
CC(=O)N[C@H](Cc1ccc2ccccc2c1)C(=O)N[C@H](Cc1ccc(Cl)cc1)C(=O)N[C@H](Cc1cccnc1)C(=O)N[C@@H](CO)C(=O)N(C)[C@@H](Cc1ccc(O)cc1)C(=O)N[C@H](CC(N)=O)C(=O)N[C@@H](CC(C)C)C(=O)N[C@@H](CCCCNC(C)C)C(=O)N1CCC[C@H]1C(=O)N[C@H](C)C(N)=O [Abarelix] (Ac-[d2Nal][dPhe(4-Cl)][d3Pal]S[NMeY][dN]L[Lys(iPr)]P[dA]-NH2) | Significant anti-proliferative effects | Significant anti-proliferative effects | 
CC(C)C[C@H](NC(=O)[C@@H](Cc1c[nH]c2ccccc12)NC(=O)[C@H](Cc1ccc(O)cc1)NC(=O)[C@H](CO)NC(=O)[C@H](Cc1c[nH]c2ccccc12)NC(=O)[C@H](Cc1c[nH]cn1)NC(=O)[C@@H]1CCC(=O)N1)C(=O)N[C@@H](CCCNC(=N)N)C(=O)N1CCC[C@H]1C(=O)NCC(N)=O [Decapeptyl] | Significant anti-proliferative effects |  | 
CC(=O)N[C@H](Cc1ccc2ccccc2c1)C(=O)N[C@H](Cc1ccc(Cl)cc1)C(=O)N[C@H](Cc1cccnc1)C(=O)N[C@@H](CO)C(=O)N[C@@H](Cc1ccc(NC(=O)[C@@H]2CC(=O)NC(=O)N2)cc1)C(=O)N[C@H](Cc1ccc(NC(N)=O)cc1)C(=O)N[C@@H](CC(C)C)C(=O)N[C@@H](CCCCNC(C)C)C(=O)N1CCC[C@H]1C(=O)N[C@H](C)C(N)=O [Degarelix] (Ac-[d2Nal][dPhe(4-Cl)][d3Pal]S[Phe(4-NH2)](Dihydroorotyl(S))[dPhe(4-NHCONH2)]L[Lys(iPr)]P[dA]-NH2) | Significant anti-proliferative effects | Significant anti-proliferative effects | significantly stronger anti-proliferative effect
CCNC(=O)[C@@H]1CCCN1C(=O)[C@H](CCCN=C(N)N)NC(=O)[C@H](CC(C)C)NC(=O)[C@@H](Cc1c[nH]c2ccccc12)NC(=O)[C@H](Cc1ccc(O)cc1)NC(=O)[C@H](CO)NC(=O)[C@H](Cc1c[nH]c2ccccc12)NC(=O)[C@H](Cc1cnc[nH]1)NC(=O)[C@@H]1CCC(=O)N1 [Deslorelin] | Significant anti-proliferative effects | Significant anti-proliferative effects | 
COc1cccc(-c2c(C)n(Cc3c(F)cccc3C(F)(F)F)c(=O)n(C[C@H](NCCCC(=O)O)c3ccccc3)c2=O)c1F [Elagolix, 4-[[(1R)-2-[5-(2-Fluoro-3-methoxyphenyl)-3-[[2-fluoro-6(trifluoromethyl)phenyl]methyl]-3,6-dihydro-4-methyl-2,6-dioxo-1(2H)-pyrimidinyl]-1-phenylethyl]amino]butanoic acid] |  | Significant anti-proliferative effects | 
CCN=C(NCC)NCCCC[C@H](NC(=O)[C@H](CC(C)C)NC(=O)[C@@H](CCCCNC(=NCC)NCC)NC(=O)[C@H](Cc1ccc(O)cc1)NC(=O)[C@H](CO)NC(=O)[C@@H](Cc1cccnc1)NC(=O)[C@@H](Cc1ccc(Cl)cc1)NC(=O)[C@@H](Cc1ccc2ccccc2c1)NC(C)=O)C(=O)N1CCC[C@H]1C(=O)N[C@H](C)C(N)=O [Ganirelix] (Ac-[d2Nal][dPhe(4-Cl)][d3Pal]SY[d(hArg(Et2))]L[hArg(Et2)]P[dA]-NH2) | Significant anti-proliferative effects | Significant anti-proliferative effects | 
CC(C)C[C@H](NC(=O)CNC(=O)[C@H](Cc1ccc(O)cc1)NC(=O)[C@H](CO)NC(=O)[C@H](Cc1c[nH]c2ccccc12)NC(=O)[C@H](Cc1cnc[nH]1)NC(=O)[C@@H]1CCC(=O)N1)C(=O)N[C@@H](CCCNC(=N)N)C(=O)N1CCC[C@H]1C(=O)NCC(N)=O [Gonadorelin] | Significant anti-proliferative effects | Significant anti-proliferative effects | 
CCNC(=O)[C@@H]1CCCN1C(=O)[C@H](CCCNC(=N)N)NC(=O)[C@H](CC(C)C)NC(=O)[C@@H](Cc1cn(Cc2ccccc2)cn1)NC(=O)[C@H](Cc1ccc(O)cc1)NC(=O)[C@H](CO)NC(=O)[C@H](Cc1c[nH]c2ccccc12)NC(=O)[C@H](Cc1cnc[nH]1)NC(=O)[C@@H]1CCC(=O)N1 [Histrelin] | Significant anti-proliferative effects | Significant anti-proliferative effects | 
Cc1cc(C)cc(-c2[nH]c3ccc(C(C)(C)C(=O)N4CC5CCC4CC5)cc3c2[C@H](C)CNCCc2ccncc2)c1 [IN3, (2S)-2-[5-[2-(2-azabicyclo[2,2,2]oct-2-yl)-1,1-dimethyl-2-oxoethyl]-2-(3,5-dimethylphenyl)-1H-indol-3-yl]-N-(2-pyridin-4-ylethyl-)propan-1-amine] | Significant anti-proliferative effects | Significant anti-proliferative effects | significantly stronger anti-proliferative effect
CCNC(=O)[C@@H]1CCCN1C(=O)[C@H](CCCN=C(N)N)NC(=O)[C@H](CC(C)C)N(C)C(=O)[C@@H](Cc1c[nH]c2ccccc12)NC(=O)[C@H](Cc1ccc(O)cc1)NC(=O)[C@H](CO)NC(=O)[C@H](Cc1c[nH]c2ccccc12)NC(=O)[C@H](Cc1cnc[nH]1)NC(=O)[C@@H]1CCC(=O)N1 [Lutrelin] | Significant anti-proliferative effects | Significant anti-proliferative effects | 
CC(=O)Nc1ccc(C[C@H](NC(=O)[C@H](CO)NC(=O)[C@@H](Cc2cccnc2)NC(=O)[C@@H](Cc2ccc(Cl)cc2)NC(=O)[C@@H](Cc2ccc3ccccc3c2)NC(C)=O)C(=O)N[C@H](Cc2ccc(NC(C)=O)cc2)C(=O)N[C@@H](CC(C)C)C(=O)N[C@@H](CCCCNC(C)C)C(=O)N2CCC[C@H]2C(=O)N[C@H](C)C(N)=O)cc1 [acyline] (Ac-[d2Nal][dPhe(4-Cl)][d3Pal]S[Phe(4-NH2)](Ac)[dPhe(4-NH2)](Ac)L[Lys(iPr)]P[dA]-NH2) | Significant anti-proliferative effects | Significant anti-proliferative effects | 
